Counter-ions that a name gives are not always drawn. Like-named read-outs stand apart in the source and are kept apart here.
What was measured:
NMDA receptor [1] = molecular target: T1, NMDA receptor (Mus musculus, UniProt P35438); assay: Maximal electroshock (MES)-induced tonic convulsions; type: in vivo; settings: for ED50: mouse, ip, 0.25 h, read-out: MES ID50; for ED50 / MES ID50: i.p., 15 min before induction
T1 construct: from tissue; host or cells: living mice (albino Swiss males for NMDA and PTZ tests, NMR females for MES)
Method: To assess NMDA receptor antagonistic properties of the tested agents by assessing anticonvulsive effects. Additionally the role of organic acid transporters in the elimination from the brain of tested agents was assessed by using an inhibitor, Probenicid, on the duration of anticonvulsive activity.
Male albino Swiss mice (19-21 g) housed 10-15 per cage were used for the NMDA lethality test (Leander et al., 1988). For pentylenetetrazol (PTZ)-induced convulsions male albino Swiss mice (25-34 g.) housed 40 per cage (58×38×20 cm) were used while in the maximal electroshock (MES) and motor impairment tests NMR female mice (18-28 g) housed 5 per cage were employed. All animals were kept with water and food ad libittum under a 12-h light-dark cycle (light on at 6 a.m.), and at a controlled temperature (20°±0.5° C.). All experiments were performed between 10 a.m. and 5 p.m. Tested agents were injected 15 min. i.p before the induction of convulsions if not stated otherwise (see below). Mrz 2/502 was dissolved in saline added with NaOH. Most other agents were dissolved in the following solution: 0.606 g Tris; 5.0 g. glucose; 0.5 g. Tween 80; and 95 ml water. The choline and tetramethylammonium salts were dissolved in distilled water.
MES (100 Hz, 0.5 sec shock duration, 50 mA shock intensity, 0.9 ms impulse duration, Ugo Basile) was applied through corneal electrodes. The presence of tonic convulsions was scored (tonic extension of hind paws with minimum angle to the body of 90°). In an additional experiment mice were injected with Probenicid (200 mg/kg) 30 min before administration of the tested agents to assess the role of organic acid transport in elimination (duration of action). The aim was to obtain ED50 s for all parameters scored using the Litchfield Wilcoxon (1949) test for quantal dose responses.

NMDA receptor [2] = molecular target: T2, NMDA receptor (Rattus norvegicus, UniProt P35439); assay: Patch clamp, inward currents to NMDA in cultured superior colliculus neurones; type: cell-based; settings: NMDA 200 μM, glycine 1 μM
T2 construct: endogenous in cells
Method: Cells were mechanically dissociated in 0.05% DNAase / 0.3% ovomucoid (Sigma) following a 15 minute pre-incubation with 0.66% trypsin / 0.1% DNAase (Sigma). The dissociated cells were then centrifuged at 18G for 10 minutes, resuspended in minimum essential medium (Gibco) and plated at a density of 200,000 cells cm onto poly-L-lysine (Sigma)-precoated plastic petri dishes (Falcon). The cells were nourished with NaHCO3 /HEPES-buffered minimum essential medium supplemented with 5% foetal calf serum and 5% horse serum (Gibco) and incubated at 37° C. with 5%CO2 at 95% humidity. The medium was exchanged completely following inhibition of further glial mitosis with cytosine-β-D-arabinofuranoside (20 μM Sigma) after about 7 days in vitro. Thereafter the medium was exchanged partially twice weekly. […] Moreover, the relatively small neurones (soma 15-20 μm .phi.) are ideally suited to minimise problems of buffered diffusion for concentration clamp experiments.
Patch clamp recordings were made from these neurones with polished glass electrodes (4-6 m.OMEGA.) in the whole cell mode at room temperature (20°-22° C.) with the aid of an EPC-7 amplifier (List). Test substances were applied by switching channels of a custom made fast superfusion system with a common outflow (10-20 ms exchange times). The contents of the intracellular solution were as follows (mM): CsCl (120), TEACl (20), EGTA (10), MgCl2 (1), CaCl2 (0.2), glucose (10), ATP (2), cAMP (0.25); pH was adjusted to 7.3 with CsOH or HCl. The extracellular solutions had the following basic composition (mM): NaCl (140), KCl (3), CaCl2 (0.2), glucose (10), HEPES (10), sucrose (4.5), tetrodotoxin (TTX 3*10-4). For most experiments glycine (1 μM) was present in all solutions. Experiments to test the glycine-dependence of the tricyclic "pyrido-phtalazin diones" were performed in the continuous presence of increasing concentrations of glycine (1-10 μM).
This effect was mediated at the glycineB site as evidenced by the parallel shift in the concentration-response curves in the presence of increasing glycine concentrations. Thus the Kbs of Mrz 2/502 as assessed according to the Cheng-Prusoff relationship were similar in glycine 1, 3 and 10 μM (80, 124 and 118 nM respectively). […] Choline derivatives had similar potencies to the free acids in vitro (Table14b).

AMPA = assay: Microelectrophoretic application of AMPA to spinal neurones in vivo; settings: i.v., responses of single rat spinal neurones
Method: (§1) The ability of these glycineB antagonists to act as NMDA receptor antagonists in vivo was assessed using i.v. administration against responses of single neurones in the rat spinal cord to microelectrophoretic application of AMPA and NMDA.

NMDA receptor [3] = molecular target: T2, NMDA receptor; assay: Microelectrophoretic application of NMDA to spinal neurones in vivo; settings: rat, iv, responses of single rat spinal neurones; read-out: Microelectrophoretic NMDA ID50
Method: as §1

[4] = peak currents, read-out: Peak NMDA IC50
[5] = plateau (steady-state) currents, read-out: Plateau NMDA IC50

Compound	IC50 (NMDA receptor [2]; [4]) [µM]	IC50 (NMDA receptor [2]; [5]) [µM]	ED50 (NMDA receptor [1]) [mg/kg]	other results
O=c1[nH][nH]c(=O)c2nc3cc(Cl)c(Cl)cc3cc12 [Mrz 2/574]				MES ID50 (NMDA receptor [1]; listed as 574, 15 min): > 100 mg/kg
O=c1[nH][nH]c(=O)c2nc3ccc(Br)cc3cc12 [Mrz 2/586]	2.2			Microelectrophoretic AMPA ID50 (AMPA): > 16.0 mg/kg; MES ID50 (NMDA receptor [1]; listed as 586, 15 min): > 50 mg/kg; ED50 (NMDA receptor [3]): > 16 mg/kg
O=c1[nH]nc(O)c2c1cc1ccccc1[n+]2[O-] [Mrz 2/577, 4-hydroxy-1-oxo-1,2-dihydro-pyridazino[4,5-b]-quinoline 5-oxide choline salt]				Microelectrophoretic AMPA ID50 (AMPA): > 32.0 mg/kg; MES ID50 (NMDA receptor [1]; listed as 577, 15 min): 23.7 mg/kg; ED50 (NMDA receptor [3]): 34 mg/kg
CCCN(CCC)S(=O)(=O)c1ccc(C(=O)O)cc1 [Probenecid, reference compound]				independent effect on MES-induced convulsions (NMDA receptor [1]; 200 mg/kg): no independent effect

Further lines, with some results ahead:

IC50 (NMDA receptor [2]; [4]) [µM]	IC50 (NMDA receptor [2]; [5]) [µM]	Compound	ED50 (NMDA receptor [1]) [mg/kg]	other results
170	36.2	COc1ccc2nc3c(=O)[nH][nH]c(=O)c3cc2c1 [Mrz 2/554]	> 100	
94	14.5	COc1ccc2cc3c(=O)[nH][nH]c(=O)c3nc2c1 [Mrz 2/575]	> 100	
101	7.7	COc1ccc2c(c1)cc1c(=O)[nH]nc(O)c1[n+]2[O-] [Mrz 2/578]	> 100	
10	1.5	O=c1[nH]nc(O)c2c1cc1cc(Cl)c(Br)cc1[n+]2[O-] [Mrz 2/568, 7-bromo-8-chloro-4-hydroxy-1-oxo-1,2-dihydropyridazino-[4,5-b]-quinoline 5-oxide]		
2.4	0.6	O=c1[nH]nc(O)c2c1cc1cc(Br)c(Cl)cc1[n+]2[O-] [Mrz 2/551, 7-chloro-8-bromo-4-hydroxy-1-oxo-1,2-dihydropyridazino-[4,5-b]-quinoline 5-oxide]		

— patent US5776935A, “Pyrido-phtalazin diones and their use against neurological disorders associated with excitotoxicity and malfunctioning of glutamatergic neurotransmission” (Merz & Co. GmbH & Co., priority 1996, dated 1998)
